# Assay results from US9371294B2, “Cycloalkenyl aryl derivatives for CETP inhibitor” (CHONG KUN DANG PHARMACEUTICAL CORP., priority 2011, dated 2016).
# Experiments:
# [1] = target: T1, cholesteryl ester transfer protein (Homo sapiens, UniProt P11597); test: In vitro test for the ability to inhibit cholesteryl ester transfer; assay type: biochemical; conditions: [3H]-cholesteryl oleate transfer from rHDL-agarose to LDL; human plasma as CETP source; 37° C.; 16-10000 nM, duplicate
# T1 construct: As a source of cholesteryl ester transfer protein, plasma from healthy humans was used; from tissue; host or cells: plasma from healthy humans
# T1 sequence (P11597 18-493): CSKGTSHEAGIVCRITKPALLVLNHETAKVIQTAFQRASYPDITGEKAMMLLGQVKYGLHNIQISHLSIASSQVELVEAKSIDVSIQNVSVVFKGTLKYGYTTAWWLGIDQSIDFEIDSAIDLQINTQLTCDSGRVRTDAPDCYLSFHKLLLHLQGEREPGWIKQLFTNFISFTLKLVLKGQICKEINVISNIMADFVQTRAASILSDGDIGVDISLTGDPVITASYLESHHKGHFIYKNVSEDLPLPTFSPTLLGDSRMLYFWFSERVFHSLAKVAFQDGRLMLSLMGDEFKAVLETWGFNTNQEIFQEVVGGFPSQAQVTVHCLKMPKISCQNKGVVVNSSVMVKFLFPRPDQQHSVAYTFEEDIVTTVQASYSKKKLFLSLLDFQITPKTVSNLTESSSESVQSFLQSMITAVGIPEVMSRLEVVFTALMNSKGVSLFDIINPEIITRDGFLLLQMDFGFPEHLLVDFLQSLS
# Procedure, shortened: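 Human plasma served as the CETP source, with human LDL (0.25 mg/ml) as acceptor and agarose-immobilised recombinant HDL carrying [3H]-cholesteryl oleate (0.25 mg/ml) as donor, at 37 °C. Compounds were run in duplicate at 16–10000 nM. Transferred radioactivity in the supernatant was counted by beta detection, and IC50 was fitted from the fraction of label transferred to LDL.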
# golden syrian hamsters = test: Test for anti-hyperlipidemia activity in hamsters (blood HDL-c levels); assay type: in vivo; conditions: male golden syrian hamsters; 3 mg/kg orally for 5 days; serum HDL-cholesterol 4 hours after last administration; vs vehicle control
# Source text: […] Test for Anti-Hyderlipidemia Activity in Hamsters
# 1. Experimental animals As test animals, 8-week-old male golden syrian hamsters were purchased and used in the experimental. The animal facility was kept at constant temperature and constant humidity with a 12-hr dark/12-hr light cycle, and the animals were allowed to access food and water ad libitum.
# 2. Experimental for Anti-Hyperlipidemia Activity in Hamsters
# The test animals were used in the test after an acclimation of 1 week. The test animals were divided according to body weight into several groups, each consisting of 5-8 animals. 3 mg/kg of each test compound (CETP inhibitor) was administered orally to the animals. Each test compounds was suspended in a solvent vehicle that is a solution of 5% ethanol, 10% solutol and 85% deionized water (DW), to be used. Each of test compounds suspended in a solvent vehicle was administered orally to the […] for 5 days. To the control group, a solvent vehicle itself was administered. And then, after 4 hours from the last administration, blood was collected through the cardiac puncture. The collected blood was centrifuged at 3000 rpm for 15 minutes, and the concentration of HDL-cholesterol (Biosystem) in the separated serum was measured using a biochemical analyzer (ILab 300 plus, Instrumentation Laboratory).
# 3. Statistical Processing
# All the results were expressed as mean±SEM, and each test group and the control group were compared using one-way ANOVA test (Dunnett's test, p<0.001) in order to determine the effect of each test group.
# [2] = cited from earlier work
SMILES,IC50 [1] [nM],HDL-c Increase (%) (golden syrian hamsters),other results
"COc1cc(F)c(C(C)C)cc1C1=C(CN2C(=O)O[C@H](c3cc(C(F)(F)F)cc(C(F)(F)F)c3)[C@@H]2C)CC(C(F)(F)F)CC1 (stereo partly drawn) [Compound 48, (4S,5R)-5-(3,5-bis(trifluoromethyl)phenyl)-3-((2-(4-fluoro-5-isopropyl-2-methoxyphenyl)-5-(trifluoromethyl)cyclohex-1-enyl)methyl)-4-methyloxazolidin-2-one]",5,41,
"COc1ccc(C(F)(F)F)cc1C1=C(CN2C(=O)O[C@H](c3cc(C(F)(F)F)cc(C(F)(F)F)c3)[C@@H]2C)CC(C)(C)CC1 [Compound 97, (4S,5R)-5-(3,5-bis(trifluoromethyl)phenyl)-3-((2-(2-methoxy-5-(trifluoromethyl)phenyl)-5,5-dimethylcyclohex-1-enyl)methyl)-4-methyloxazolidin-2-one]",20,22,
"COc1ccc(C(C)C)cc1C1=C(CN2C(=O)O[C@H](c3cc(C(F)(F)F)cc(C(F)(F)F)c3)[C@@H]2C)CC(C(F)(F)F)CC1 (stereo partly drawn) [Compound 108, (4S,5R)-5-(3,5-bis(trifluoromethyl)phenyl)-3-((2-(5-isopropyl-2-methoxyphenyl)-5-(trifluoromethyl)cyclohex-1-enyl)methyl)-4-methyloxazolidin-2-one]",20,23,
"COc1ccc(N(C)C(C)=O)cc1C1=C(CN2C(=O)O[C@H](c3cc(C(F)(F)F)cc(C(F)(F)F)c3)[C@@H]2C)CC(C)(C)CC1 [Compound 112, N-(3-(2-(((4S,5R)-5-(3,5-bis(trifluoromethyl)phenyl)-4-methyl-2-oxooxazolidin-3-yl)methyl)-4,4-dimethylcyclohex-1-enyl)-4-methoxyphenyl)-N-methylacetamide]",8,43,
"COc1ccc(C(C)(C)C)cc1C1=C(CN2C(=O)O[C@H](c3cc(C(F)(F)F)cc(C(F)(F)F)c3)[C@@H]2C)CC(C)(C)CC1 [Compound 115, (4S,5R)-5-(3,5-bis(trifluoromethyl)phenyl)-3-((2-(5-tert-butyl-2-methoxyphenyl)-5,5-dimethylcyclohex-1-enyl)methyl)-4-methyloxazolidin-2-one]",10,29,
"COc1cc(F)c(C(C)C(F)(F)F)cc1C1=C(CN2C(=O)O[C@H](c3cc(C(F)(F)F)cc(C(F)(F)F)c3)[C@@H]2C)CC(C)(C)CC1 (stereo partly drawn) [Compound 132, (4S,5R)-5-(3,5-bis(trifluoromethyl)phenyl)-3-((2-(4-fluoro-2-methoxy-5-(1,1,1-trifluoropropan-2-yl)phenyl)-5,5-dimethylcyclohex-1-enyl)methyl)-4-methyloxazolidin-2-one]",50,33,
"COc1cc(F)c(C(C)C)cc1C1=C(CN2C(=O)O[C@H](c3cc(C(F)(F)F)cc(C(F)(F)F)c3)[C@@H]2C)CC2(CC1)CC2 [Compound 274, (4S,5R)-5-(3,5-bis(trifluoromethyl)phenyl)-3-((6-(4-fluoro-5-isopropyl-2-methoxyphenyl)spiro[2.5]oct-5-en-5-yl)methyl)-4-methyloxazolidin-2-one]",14,21,
"COc1ccc(CC(C)(C)C(=O)O)cc1C1=C(CN2C(=O)O[C@H](c3cc(C(F)(F)F)cc(C(F)(F)F)c3)[C@@H]2C)CC(C)(C)CC1 [Compound 286, 3-(3-(2-(((4S,5R)-5-(3,5-bis(trifluoromethyl)phenyl)-4-methyl-2-oxooxazolidin-3-yl)methyl)-4,4-dimethylcyclohex-1-enyl)-4-methoxyphenyl)-2,2-dimethylpropanoic acid]",12,42,
"COc1cc(F)c(C2(C)CC2)cc1C1=C(CN2C(=O)O[C@H](c3cc(C(F)(F)F)cc(C(F)(F)F)c3)[C@@H]2C)CC(C)(C)CC1 [Compound 302, (4S,5R)-5-(3,5-bis(trifluoromethyl)phenyl)-3-((2-(4-fluoro-2-methoxy-5-(1-methylcyclopropyl)phenyl)-5,5-dimethylcyclohex-1-enyl)methyl)-4-methyloxazolidin-2-one]",6,38,
CCC(CC)CC1(C(=O)Nc2ccccc2SC(=O)C(C)C)CCCCC1 [Dalcetrapib],,,rise in HDL-C ([2]; in vivo): insufficient rise in HDL-C
O=C(O)c1cccnc1 [Niacin],,,side effects ([2]; relatively large doses): facial flushing
CCOC(=O)N1c2ccc(C(F)(F)F)cc2[C@@H](N(Cc2cc(C(F)(F)F)cc(C(F)(F)F)c2)C(=O)OC)C[C@H]1CC [Torcetrapib],,,"effect on blood pressure ([2]; clinical trials terminated): increases in blood pressure; effect on mortality ([2]; clinical trials terminated): increase in mortality; effect on hormone levels ([2]; hormones associated with elevation in blood pressure): increases the levels of hormones, such as aldosterone and cortisol; effect on vascular wall ([2]; in vivo): increases the thickness of the vascular wall to cause inflammation"
